In patent publication US20240374609A1, “NITROSAMINE IMPURITY, VARENICLINE PHARMACEUTICAL COMPOSITION CAPABLE OF REDUCING GENERATION OF NITROSAMINE IMPURITIES AND PREPARATION AND USE THEREOF” (VIWIT PHARMACEUTICALCO., LTD., priority 2021, published 2024):
Like-named read-outs stand apart in the source and are kept apart here.

Key:
[1] = Stability of solutions (control solution and sample solution at room temperature); format: physicochemical
Description: Control stock solution: 7.5 mg of the nitrosamine compound P08 (purity≥98%) was weighed into a 100 ml volumetric flask, dissolved and diluted with acetonitrile to volume (volumetric solution 1A). 1.0 mL of the volumetric solution 1A was added into a 100 ml volumetric flask, and diluted with acetonitrile to volume (volumetric solution 1B). 1.0 mL of the volumetric solution 1B was added into a 20 ml volumetric flask, and diluted with acetonitrile to volume to obtain the control stock solution.
Control solution: 1.0 mL of the control stock solution was added into a 10 ml volumetric flask, and diluted with acetonitrile to volume to obtain the control solution.
Sample solution: 10 varenicline tartrate tablets were placed in a 10 ml volumetric flask, added with 3 mL of purified water and 3 mL of acetonitrile, sonicated for 30s, then diluted with acetonitrile to volume and mixed evenly.
The control solution and the sample solution were placed at room temperature, then injected for analysis at intervals of 0, 2, 4, 6, 8, 10, 12 hours, and the peak area ratio of each time point to the zero point (i.e., peak area change rate) was calculated.

Salmonella typhimurium = test: Ames test, overall result determination; format: cell-based; details: in the presence and absence of metabolic activation system
Description: Whether nitrosamine impurity compound P08 is genotoxic (capable of mutagenicity or carcinogenesis) was detected.
(§1) If the test substance tested by the above test strain is negative both with and without S9, then the test substance is determined to be mutagenic negative.

[2] = test system: Salmonella Typhimurium TA98; test: Ames test, plate incorporation method, TA98; format: cell-based
Description: (§2) Salmonella Typhimurium TA97a, TA98, TA100, TA102, and TA1535 from MOLT OX, USA, were purchased from Shanghai Bioplus Biotech.
(§3) Rat liver S9 from Shanghai Bioplus Biotech. Co., Ltd.
(§4) The experiments were performed using the plate incorporation method.
(§5) Dose selection: The experiments were performed using 5 mg, 2.5 mg, 1.25 mg, 0.625 mg, 0.3125 mg, and 0.15625 mg per dish.
(§6) 0.1 ml of frozen bacterial solutions TA97a, TA98, TA100, TA102 and TA1535 were inoculated into the 10 ml nutrient broth mediums respectively, and cultured at 37° C. (100/min) for 10 h with shaking (100 times/min). 2.0 ml of top layer medium containing 0.5 mmol/L histidine −0.5 mmol/L biotin was dispensed into test tubes, sterilized by 0.103 MPa for 20 min, and kept in a water bath at 50° C. Then, 0.1 ml of the test substance solution, 0.5 ml of the S9 mixture (when metabolic activation was required) and 0.1 ml of the bacterial solution were added into each tube successively, mixed sufficiently, and poured into the bottom layer agar plates quickly. Then, the plates were turned to distribute even. After being placed horizontally for condensation and solidification, the plates were inverted and incubated in an incubator at 37° C. for 48 h, and the number of reverse mutation colonies per dish was counted. Three parallel plates of each dose were made, containing the spontaneous reverse mutation group, the solvent control group and the positive control group.
(§7) The data were expressed as means±standards deviation (x±s), and SPSS 19.0 was used for calculation of data analysis.
as §1

[3] = test system: Salmonella Typhimurium TA1535; format: cell-based
Description: (§8) Salmonella Typhimurium TA97a, TA98, TA100, TA102, and TA1535 from MOLT OX, USA, were purchased from Shanghai Bioplus Biotech. Co., Ltd. The test was carried out using Salmonella typhimurium strains that were identified as meeting the requirements.
as §3, §4, §5
(§9) Test substance preparation: nitrosamine impurity compound P08 was prepared to a solution of 50 mg/ml with dimethyl-sulfoxide, and diluted with dimethyl-sulfoxide to give the solutions of 25 mg/ml, 12.5 mg/ml, 6.25 mg/ml, 3.125 mg/ml, and 1.5625 mg/ml successively.
as §6, §7, §1

[4] = test system: Salmonella Typhimurium TA100; test: Ames test, plate incorporation method, TA100; format: cell-based
Description: as §2, §3, §4, §5, §6, §7, §1

[5] = test system: Salmonella Typhimurium TA102; test: Ames test, plate incorporation method, TA102; format: cell-based
Description: as §8, §3, §4, §5, §9, §6, §7, §1

[6] = test system: Salmonella Typhimurium TA97a; test: Ames test, plate incorporation method, TA97a; format: cell-based
Description: as §2, §3, §4, §5, §6, §7, §1

## O=NN1CC2CC(C1)c1cc3nccnc3cc12 [P08]
[1]; control solution (acetonitrile)
  peak area change rate within 12 hours: < 12%
[1]; sample solution (tablets in water/acetonitrile)
  peak area change rate within 12 hours: < 3.5%
Salmonella typhimurium
  mutagenicity determination (Ames test): mutagenic positive
[2]; TA98, +S9, 156.25 μg/dish
  number of reverse mutation colonies per dish (x ± s): 33 ± 6
[2]; TA98, +S9, 312.5 μg/dish
  number of reverse mutation colonies per dish (x ± s): 34 ± 1
[2]; TA98, +S9, 625 μg/dish
  number of reverse mutation colonies per dish (x ± s): 35 ± 2
[2]; TA98, +S9, 1250 μg/dish
  number of reverse mutation colonies per dish (x ± s): 41 ± 6
[2]; TA98, +S9, 2500 μg/dish
  number of reverse mutation colonies per dish (x ± s): 59 ± 4
[2]; TA98, +S9, 5000 μg/dish
  number of reverse mutation colonies per dish (x ± s): 53 ± 6
[2]; TA98, adding S9, 2500 μg/dish
  number of colonies relative to that of the solvent control: more than twice
[2]; TA98, −S9, 156.25 μg/dish
  number of reverse mutation colonies per dish (x ± s): 29 ± 2
[2]; TA98, −S9, 312.5 μg/dish
  number of reverse mutation colonies per dish (x ± s): 27 ± 3
[2]; TA98, −S9, 625 μg/dish
  number of reverse mutation colonies per dish (x ± s): 28 ± 2
[2]; TA98, −S9, 1250 μg/dish
  number of reverse mutation colonies per dish (x ± s): 30 ± 3
[2]; TA98, −S9, 2500 μg/dish
  number of reverse mutation colonies per dish (x ± s): 31 ± 3
[2]; TA98, −S9, 5000 μg/dish
  number of reverse mutation colonies per dish (x ± s): 32 ± 2
[3]; TA1535, +S9, 156.25 μg/dish
  number of reverse mutation colonies per dish (x ± s): 21 ± 0
[3]; TA1535, +S9, 312.5 μg/dish
  number of reverse mutation colonies per dish (x ± s): 20 ± 3
[3]; TA1535, +S9, 625 μg/dish
  number of reverse mutation colonies per dish (x ± s): 35 ± 7
[3]; TA1535, +S9, 1250 μg/dish
  number of reverse mutation colonies per dish (x ± s): 34 ± 3
[3]; TA1535, +S9, 2500 μg/dish
  number of reverse mutation colonies per dish (x ± s): 38 ± 5
[3]; TA1535, +S9, 5000 μg/dish
  number of reverse mutation colonies per dish (x ± s): 46 ± 6
[3]; TA1535, no S9, 625 μg/dish
  number of colonies relative to that of the solvent control: more than twice
[3]; TA1535, with S9, 5000, 2500, 1250 and 625 μg/dish, dose-response relationship
  number of colonies relative to that of the solvent control: more than twice
[3]; TA1535, −S9, 156.25 μg/dish
  number of reverse mutation colonies per dish (x ± s): 23 ± 2
[3]; TA1535, −S9, 312.5 μg/dish
  number of reverse mutation colonies per dish (x ± s): 36 ± 1
[3]; TA1535, −S9, 625 μg/dish
  number of reverse mutation colonies per dish (x ± s): 42 ± 4
[3]; TA1535, −S9, 1250 μg/dish
  number of reverse mutation colonies per dish (x ± s): 18 ± 2
[3]; TA1535, −S9, 2500 μg/dish
  number of reverse mutation colonies per dish (x ± s): 28 ± 2
[3]; TA1535, −S9, 5000 μg/dish
  number of reverse mutation colonies per dish (x ± s): 20 ± 2
[4]; TA100, +S9, 156.25 μg/dish
  number of reverse mutation colonies per dish (x ± s): 225 ± 9
[4]; TA100, +S9, 312.5 μg/dish
  number of reverse mutation colonies per dish (x ± s): 234 ± 6
[4]; TA100, +S9, 625 μg/dish
  number of reverse mutation colonies per dish (x ± s): 271 ± 11
[4]; TA100, +S9, 1250 μg/dish
  number of reverse mutation colonies per dish (x ± s): 287 ± 13
[4]; TA100, +S9, 2500 μg/dish
  number of reverse mutation colonies per dish (x ± s): 364 ± 19
[4]; TA100, +S9, 5000 μg/dish
  number of reverse mutation colonies per dish (x ± s): 378 ± 18
[4]; TA100, −S9, 156.25 μg/dish
  number of reverse mutation colonies per dish (x ± s): 218 ± 20
[4]; TA100, −S9, 312.5 μg/dish
  number of reverse mutation colonies per dish (x ± s): 234 ± 31
[4]; TA100, −S9, 625 μg/dish
  number of reverse mutation colonies per dish (x ± s): 224 ± 3
[4]; TA100, −S9, 1250 μg/dish
  number of reverse mutation colonies per dish (x ± s): 220 ± 10
[4]; TA100, −S9, 2500 μg/dish
  number of reverse mutation colonies per dish (x ± s): 193 ± 25
[4]; TA100, −S9, 5000 μg/dish
  number of reverse mutation colonies per dish (x ± s): 206 ± 25
[5]; TA102, +S9, 156.25 μg/dish
  number of reverse mutation colonies per dish (x ± s): 249 ± 13
[5]; TA102, +S9, 312.5 μg/dish
  number of reverse mutation colonies per dish (x ± s): 253 ± 24
[5]; TA102, +S9, 625 μg/dish
  number of reverse mutation colonies per dish (x ± s): 296 ± 21
[5]; TA102, +S9, 1250 μg/dish
  number of reverse mutation colonies per dish (x ± s): 272 ± 17
[5]; TA102, +S9, 2500 μg/dish
  number of reverse mutation colonies per dish (x ± s): 283 ± 11
[5]; TA102, +S9, 5000 μg/dish
  number of reverse mutation colonies per dish (x ± s): 320 ± 15
[5]; TA102, −S9, 156.25 μg/dish
  number of reverse mutation colonies per dish (x ± s): 208 ± 13
[5]; TA102, −S9, 312.5 μg/dish
  number of reverse mutation colonies per dish (x ± s): 237 ± 6
[5]; TA102, −S9, 625 μg/dish
  number of reverse mutation colonies per dish (x ± s): 236 ± 20
[5]; TA102, −S9, 1250 μg/dish
  number of reverse mutation colonies per dish (x ± s): 245 ± 4
[5]; TA102, −S9, 2500 μg/dish
  number of reverse mutation colonies per dish (x ± s): 219 ± 11
[5]; TA102, −S9, 5000 μg/dish
  number of reverse mutation colonies per dish (x ± s): 211 ± 8
[6]; +S9, 156.25 μg/dish
  number of reverse mutation colonies per dish (x ± s): 209 ± 16
[6]; +S9, 312.5 μg/dish
  number of reverse mutation colonies per dish (x ± s): 248 ± 13
[6]; +S9, 625 μg/dish
  number of reverse mutation colonies per dish (x ± s): 242 ± 17
[6]; +S9, 1250 μg/dish
  number of reverse mutation colonies per dish (x ± s): 279 ± 5
[6]; +S9, 2500 μg/dish
  number of reverse mutation colonies per dish (x ± s): 297 ± 8
[6]; +S9, 5000 μg/dish
  number of reverse mutation colonies per dish (x ± s): 310 ± 19
[6]; −S9, 156.25 μg/dish
  number of reverse mutation colonies per dish (x ± s): 158 ± 11
[6]; −S9, 312.5 μg/dish
  number of reverse mutation colonies per dish (x ± s): 175 ± 6
[6]; −S9, 625 μg/dish
  number of reverse mutation colonies per dish (x ± s): 175 ± 12
[6]; −S9, 1250 μg/dish
  number of reverse mutation colonies per dish (x ± s): 160 ± 15
[6]; −S9, 2500 μg/dish
  number of reverse mutation colonies per dish (x ± s): 165 ± 10
[6]; −S9, 5000 μg/dish
  number of reverse mutation colonies per dish (x ± s): 159 ± 5
